Source: PubChem BioAssay AID1919016 (Molecular Pharmacology Branch, DTP, NCI, 2023)

System: NCI-H196 complex spheroid growth, percent test/control
Assay: Anticancer human tumor NCI-H196 cell line growth inhibition [AhR];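 further: seven days of drug exposure starting three days after plating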;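 on viability, T/C: 100% = DMSO vehicle control wells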
Conditions: for IC50: curve of first compound; for viability, T/C: stronger effect = lower value
Summary of the method: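 Agents were dosed in half-log steps down from roughly clinical Cmax, or from 10 microM where Cmax was unknown, alone and with AhR antagonists. Read-out: percent test/control growth of tumor spheroids containing HUVEC and MSC stromal cells.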

[1] = second compound 0.1 µM, first compound 0.0316 µM
[2] = second compound 0.1 µM, first compound 0.1 µM
[3] = second compound 0.1 µM, first compound 0.316 µM
[4] = second compound 0.1 µM, first compound 1 µM
[5] = second compound 0.1 µM, first compound 3.16 µM
[6] = second compound 0.1 µM, first compound 10 µM
[7] = second compound 0.316 µM, first compound 0.0316 µM
[8] = second compound 0.316 µM, first compound 0.1 µM
[9] = second compound 0.316 µM, first compound 0.316 µM
[10] = second compound 0.316 µM, first compound 1 µM
[11] = second compound 0.316 µM, first compound 3.16 µM
[12] = second compound 0.316 µM, first compound 10 µM
[13] = second compound 1 µM, first compound 0.0316 µM
[14] = second compound 1 µM, first compound 0.1 µM
[15] = second compound 1 µM, first compound 0.316 µM
[16] = second compound 1 µM, first compound 1 µM
[17] = second compound 1 µM, first compound 3.16 µM
[18] = second compound 1 µM, first compound 10 µM
[19] = second compound 3.16 µM, first compound 0.0316 µM
[20] = second compound 3.16 µM, first compound 0.1 µM
[21] = second compound 3.16 µM, first compound 0.316 µM
[22] = second compound 3.16 µM, first compound 1 µM
[23] = second compound 3.16 µM, first compound 3.16 µM
[24] = second compound 3.16 µM, first compound 10 µM
[25] = second compound 10 µM, first compound 0.0316 µM
[26] = second compound 10 µM, first compound 0.1 µM
[27] = second compound 10 µM, first compound 0.316 µM
[28] = second compound 10 µM, first compound 1 µM
[29] = second compound 10 µM, first compound 3.16 µM
[30] = second compound 10 µM, first compound 10 µM

| IC50 (second compound 0.1 µM) | IC50 (second compound 0.316 µM) | IC50 (second compound 1 µM) | IC50 (second compound 3.16 µM) | IC50 (second compound 10 µM) | Compound | viability, T/C [1] | viability, T/C [2] | viability, T/C [3] | viability, T/C [4] | viability, T/C [5] | viability, T/C [6] | viability, T/C [7] | viability, T/C [8] | viability, T/C [9] | viability, T/C [10] | viability, T/C [11] | viability, T/C [12] | viability, T/C [13] | viability, T/C [14] | viability, T/C [15] | also measured |
| --- | --- | --- | --- | --- | --- | --- | --- | --- | --- | --- | --- | --- | --- | --- | --- | --- | --- | --- | --- | --- | --- |
| 478 nM | 614 nM | 540 nM | 651 nM | 591 nM | Nc1ccccc1NC(=O)c1ccc(CNC(=O)OCc2cccnc2)cc1 + Cc1cncc(-c2nc(NCCc3c[nH]c4ccccc34)c3ncn(C(C)C)c3n2)c1 | 87.4% | 74.2% | 57.6% | 38.3% | 12.1% | 0.58% | 75.1% | 78.7% | 60% | 42% | 13% | 0.65% | 96.3% | 81.4% | 67.4% | viability, T/C [16]: 31.9%; viability, T/C [17]: 11.4%; viability, T/C [18]: 0.72%; viability, T/C [19]: 87.1%; viability, T/C [20]: 85.2%; viability, T/C [21]: 69.8%; viability, T/C [22]: 38.3%; viability, T/C [23]: 9.78%; viability, T/C [24]: 1.22%; viability, T/C [25]: 82.2%; viability, T/C [26]: 85.5%; viability, T/C [27]: 63.5%; viability, T/C [28]: 38.1%; viability, T/C [29]: 8.35%; viability, T/C [30]: 1.86% |
| 1300 nM | 1360 nM | 1120 nM | 1290 nM | 1380 nM | O=C(C=Cc1cccc(S(=O)(=O)Nc2ccccc2)c1)NO + Cc1cncc(-c2nc(NCCc3c[nH]c4ccccc34)c3ncn(C(C)C)c3n2)c1 | 102% | 102% | 79.6% | 63.6% | 18.5% | 0.47% | 103% | 103% | 96.2% | 64.1% | 12.2% | 0.53% | 110% | 115% | 110% | viability, T/C [16]: 51.9%; viability, T/C [17]: 18.3%; viability, T/C [18]: 1.69%; viability, T/C [19]: 114%; viability, T/C [20]: 99.5%; viability, T/C [21]: 96.7%; viability, T/C [22]: 55.8%; viability, T/C [23]: 21.7%; viability, T/C [24]: 0.41%; viability, T/C [25]: 89.3%; viability, T/C [26]: 87.8%; viability, T/C [27]: 79.5%; viability, T/C [28]: 64.3%; viability, T/C [29]: 15.7%; viability, T/C [30]: 0.74% |
| > 10000 nM | > 10000 nM | > 10000 nM | > 10000 nM | > 10000 nM | O=C(c1cc(Cc2n[nH]c(=O)c3ccccc23)ccc1F)N1CCN(C(=O)C2CC2)CC1 + Cc1cncc(-c2nc(NCCc3c[nH]c4ccccc34)c3ncn(C(C)C)c3n2)c1 | 103% | 102% | 96.1% | 96% | 98.8% | 87.4% | 101% | 101% | 103% | 94% | 107% | 91.2% | 105% | 90.5% | 105% | viability, T/C [16]: 93.4%; viability, T/C [17]: 101%; viability, T/C [18]: 97.7%; viability, T/C [19]: 113%; viability, T/C [20]: 106%; viability, T/C [21]: 98.1%; viability, T/C [22]: 99.7%; viability, T/C [23]: 103%; viability, T/C [24]: 99.6%; viability, T/C [25]: 81.9%; viability, T/C [26]: 91.7%; viability, T/C [27]: 87.4%; viability, T/C [28]: 88.7%; viability, T/C [29]: 86.9%; viability, T/C [30]: 93.8% |
